Assay results published in PubChem BioAssay (NCI).
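Step 1: Grow cells in 96-well plates. Step 2: Expose to compound for 48 hours at 5 concentrations. Step 3: Interpolate endpoints linearly; if unreached, use highest concentration. TGI denotes the concentration required for complete inhibition of growth.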

Experiments:
Test in all cases: inhibition of tumour cell growth, NCI panel, 48 h
OVCAR-8 ovarian = system: OVCAR-8 ovarian
UACC-62 melanoma = system: UACC-62 melanoma
ACHN renal = system: ACHN renal
RPMI-8226 leukemia = system: RPMI-8226 leukemia
HOP-62 NSCLC = system: HOP-62 NSCLC
TK-10 renal = system: TK-10 renal
KM12 colon = system: KM12 colon
MALME-3M melanoma = system: MALME-3M melanoma
RXF 393 renal = system: RXF 393 renal
SN12C renal = system: SN12C renal
SF-539 CNS = system: SF-539 CNS
HOP-92 NSCLC = system: HOP-92 NSCLC
SW-620 colon = system: SW-620 colon
HCC-2998 colon = system: HCC-2998 colon
EKVX NSCLC = system: EKVX NSCLC
HT29 colon = system: HT29 colon
K-562 leukemia = system: K-562 leukemia
OVCAR-3 ovarian = system: OVCAR-3 ovarian
UO-31 renal = system: UO-31 renal

| SMILES | TGI (OVCAR-8 ovarian) | TGI (UACC-62 melanoma) | TGI (ACHN renal) | TGI (RPMI-8226 leukemia) | TGI (HOP-62 NSCLC) | TGI (TK-10 renal) | TGI (KM12 colon) | TGI (MALME-3M melanoma) | TGI (RXF 393 renal) | TGI (SN12C renal) | TGI (SF-539 CNS) | TGI (HOP-92 NSCLC) | TGI (SW-620 colon) | TGI (HCC-2998 colon) | TGI (EKVX NSCLC) | TGI (HT29 colon) | TGI (K-562 leukemia) | TGI (OVCAR-3 ovarian) | TGI (UO-31 renal) |
| --- | --- | --- | --- | --- | --- | --- | --- | --- | --- | --- | --- | --- | --- | --- | --- | --- | --- | --- | --- |
| C[C@H](NC(=O)CNC(=O)CCCCCC(=O)NCC(=O)N[C@@H](C)C(=O)OCc1ccccc1)C(=O)OCc1ccccc1 | > 100 µM | > 100 µM | > 100 µM | > 100 µM | > 100 µM | > 100 µM | > 100 µM | > 100 µM | > 100 µM | > 100 µM | > 100 µM | > 100 µM | > 100 µM | > 100 µM | > 100 µM | > 100 µM | > 100 µM | > 100 µM | – |
| CSc1nc2c3ccccc3ccn2c1C(=O)N/N=C/c1ccccc1 | 44.7 µM | > 100 µM | 25.3 µM | > 100 µM | 27.2 µM | – | > 100 µM | > 95.1 µM | > 79.4 µM | > 100 µM | 9.53 µM | > 33.8 µM | > 100 µM | > 100 µM | > 100 µM | > 100 µM | > 100 µM | 37.4 µM | 42.7 µM |
| c1ccc(COC2C3COC(O3)C(OCc3ccccc3)C2OCc2ccccc2)cc1 (stereo not drawn) | > 100 µM | > 100 µM | > 100 µM | > 100 µM | > 100 µM | > 100 µM | > 100 µM | – | > 100 µM | 41.7 µM | > 100 µM | > 100 µM | > 100 µM | 52.1 µM | > 100 µM | – | > 100 µM | > 100 µM | > 100 µM |
| FC(F)(F)c1cccnc1Sc1nc2ccccc2s1 | > 100 µM | > 100 µM | > 100 µM | > 100 µM | > 100 µM | > 100 µM | > 100 µM | > 100 µM | > 100 µM | > 100 µM | > 100 µM | > 100 µM | > 100 µM | > 100 µM | > 100 µM | > 100 µM | > 100 µM | > 100 µM | > 100 µM |
| CCCCN(C)C(=O)C1=C(C)NC(C)=C(C(=O)N(C)CCCC)C1 | > 100 µM | > 100 µM | > 100 µM | > 100 µM | > 100 µM | > 100 µM | > 100 µM | – | > 100 µM | > 100 µM | > 100 µM | > 100 µM | > 100 µM | > 100 µM | > 100 µM | > 100 µM | > 100 µM | > 100 µM | > 100 µM |
| Nc1ccc(-c2nc3ccc(F)cc3s2)cc1I | > 100 µM | > 100 µM | > 100 µM | > 100 µM | > 100 µM | – | > 100 µM | > 100 µM | > 67.9 µM | > 100 µM | > 100 µM | > 100 µM | > 100 µM | > 100 µM | > 100 µM | > 100 µM | > 100 µM | – | > 100 µM |
| CC(=O)N(CC(=O)C(=O)NNc1ccoc1)c1ccc(Cl)cc1 | > 100 µM | – | > 100 µM | > 100 µM | > 100 µM | > 100 µM | > 100 µM | > 100 µM | > 100 µM | > 100 µM | > 100 µM | > 100 µM | > 100 µM | > 100 µM | > 100 µM | > 100 µM | > 100 µM | > 100 µM | > 100 µM |
| S=C(N/N=C/c1ccccn1)N1CCCCCC1 | 12.7 µM | 0.364 µM | 1.53 µM | 0.491 µM | – | 38 µM | 63.3 µM | 42.4 µM | 5.01 µM | 0.359 µM | 0.305 µM | > 100 µM | > 100 µM | > 38.1 µM | 4.04 µM | > 44.2 µM | > 100 µM | 9.3 µM | 4.76 µM |
| c1ccc2c(-c3csc(-c4c[nH]c5ccccc45)n3)c[nH]c2c1 | > 100 µM | > 100 µM | > 100 µM | – | > 100 µM | > 100 µM | > 100 µM | > 100 µM | > 100 µM | > 100 µM | > 100 µM | > 100 µM | > 100 µM | > 100 µM | > 100 µM | > 83.6 µM | 15.1 µM | > 100 µM | > 100 µM |
| COc1ccc(C(=O)Oc2c(C#N)sc3c2c(=O)n(-c2ccccc2)c(=S)n3-c2ccccc2)cc1 | > 100 µM | 24.5 µM | > 100 µM | 47.1 µM | 73.9 µM | 76 µM | 54.6 µM | – | 53.7 µM | 68.2 µM | 49.3 µM | 67.5 µM | > 100 µM | 84.8 µM | 31.3 µM | 62 µM | > 100 µM | 97.4 µM | 3.94 µM |
| O=S(=O)(O)c1ccc2cc(N=Nc3c(O)ccc4ccccc34)ccc2c1 | > 100 µM | > 100 µM | > 100 µM | – | > 100 µM | > 100 µM | > 100 µM | > 100 µM | > 100 µM | > 100 µM | > 100 µM | > 100 µM | > 100 µM | > 100 µM | > 100 µM | > 100 µM | > 100 µM | > 100 µM | > 100 µM |
| Nc1c(Cl)cc(-c2nc3ccccc3s2)cc1Cl | > 100 µM | > 100 µM | > 100 µM | – | > 100 µM | > 100 µM | > 100 µM | > 100 µM | > 100 µM | > 100 µM | > 100 µM | > 100 µM | > 100 µM | > 100 µM | > 100 µM | > 100 µM | > 100 µM | > 100 µM | > 100 µM |
| CCOC(=O)/C=C/C1(CCOC(C)=O)CCCCC1 | > 10 µM | > 10 µM | > 10 µM | > 10 µM | > 10 µM | > 10 µM | > 10 µM | – | > 10 µM | > 10 µM | > 10 µM | > 10 µM | > 10 µM | > 10 µM | > 10 µM | > 10 µM | > 10 µM | > 10 µM | > 10 µM |
